Laboratory results reported in PMC8066774, “Binding and Action of Triphenylphosphonium Analog of Chloramphenicol upon the Bacterial Ribosome” (Antibiotics, 2021).

Legend:
E. coli 70S ribosomes [1] = assay: Direct equilibrium binding of BODIPY-CAM measured by fluorescence anisotropy; details: BODIPY-CAM 4 nM, ribosomes 5 nM to 5 µM, 30 min; read-out: Apparent dissociation constant KDapp, direct equilibrium binding
Method: The apparent dissociation constant of BODIPY-CAM (KDapp = 3.5 ± 0.9 µM) was determined by its direct equilibrium binding to E. coli 70S ribosomes (Figure S1B). A solution of BODIPY-CAM (4 nM) in the buffer containing 20 mM HEPES-KOH (pH 7.5), 50 mM NH4Cl, 10 mM Mg(CH3COO)2, 4 mM β-mercaptoethanol, and 0.05% Tween-20 was mixed with ribosomes in the range of concentrations from 5 nM to 5 μM, incubated for 30 min, and the values of fluorescence anisotropy were measured.
Chen C.- W. et al. Supplementary Inform ation P age | 6of 10 […]
Fi g u re S1. Binding of BODIPY-CAM to E. coli 70S ribosomes measu re d b y f lu orescence an isot rop y.
(A) Chemical structure of fluorescent analog of chloramphenicol BODIPY-CAM. (B) Equilibrium binding isotherm of BODIPY-CAM to E. coli 70S ribosomes.Non -linear regression anal ysis of obt ained data yi elded an apparent dissociation constant of BO D IP Y -CAM ( KDapp = 3.5 ± 0.9 µM).
(1 picture or pasted object on this page, not shown here)

[2] = system: E. coli BW25113 ΔtolC pDualRep2 reporter strain; assay: In vivo dual-reporter (pDualrep2) assay on agar plate: Katushka2S / RFP induction and growth inhibition zone; format: cell-based; details: overnight 37 °C; for Induction of fluorescent reporters (Katushka2S = ribosome stalling; RFP = DNA damage/SOS response): drops of DMSO solutions (CAM-C4-TPP 20 mM, C4-TPP 20 mM, CAM 2 mM, CHL 2 mM, ERY 6.8 mM, LEV 69 nM)
Text: Since CAM-C4-TPP is a semi-synthetic analog of the PTC-targeting antibiotic CHL, we expected that, similar to CHL, CAM-C4-TPP would also bind and act upon the bacterial ribosome inhibiting protein synthesis. However, we could not rule out the possibility that the presence of the additional TPP group could alter the intracellular target of the CAM-C4-TPP molecule. To check whether protein synthesis remains the primary target of CAM-C4-TPP action in the bacterial cells, we used an E. coli-based in vivo reporter system that is designed for screening of inhibitors targeting either DNA replication or protein synthesis.
(§1) Figure 2 CAM-C4-TPP is a potent inhibitor of protein synthesis both in vivo and in vitro. (A) In vivo testing of CAM-C4-TPP activity using E. coli BW25113 ΔtolC pDualRep2 reporter strains. The induction of the red fluorescent protein (RFP) expression (green halo around the inhibition zone) is triggered by DNA-damage, while the induction of Katushka2S protein (red halo) occurs in response to ribosome stalling. Levofloxacin (LEV), erythromycin (ERY), and chloramphenicol (CHL) are used as controls. This image is an overlay of the two images from the independent detections of RFP (Cy3 mode) or Ktushka2S (Cy5 mode) by ChemiDoc MP (Bio-Rad) with RFP fluorescence shown in green pseudocolor and Katushka2S fluorescence shown in red pseudocolor. (B,C) Competition-binding assay to test the displacement of fluorescently labeled BODIPY-CAM (B) or BODIPY-ERY (C) analogs from the E. coli 70S ribosomes in the presence of increasing concentrations of CAM (open diamonds), CHL (blue squares), or CAM-C4-TPP (red circles) measured by fluorescence anisotropy. All reactions were repeated three times. Error bars represent standard deviation. ND, no displacement. The resulting values for apparent dissociation constants (KDapp) are shown on each plot. (D) Inhibition of protein synthesis by increasing concentrations of CHL (blue squares) or CAM-C4-TPP (red circles) in the in vitro cell-free transcription-translation coupled system. The relative enzymatic activity of in vitro synthesized firefly luciferase is shown. Error-bars represent standard deviations of the mean of three independent measurements. TEXT PRINTED IN THE PICTURE: (D) CHL: IC50, μM: 2.8±0.5 | (D) CAM-C4-TPP: IC50, μM: 0.9±0.2 | (B) CAM: KDApp, μM: 420±240 | (B) CHL: KDApp, μM: 2.6±1.5 | (B) CAM-C4-TPP: KDApp, μM: 0.6±0.4 | (C) CAM: KDApp, μM: ND | (C) CHL: KDApp, μM: 2.8±0.5 | (C) CAM-C4-TPP: KDApp, μM: 0.61±0.07
For the in vivo bioactivity test (Figure 2A), we used the reporter strain BW25113ΔtolC-pDualrep2 as described previously. Briefly, 1.5 µL of the solutions of CAM-C4-TPP (20 mM), C4-TPP (20 mM), CAM (2 mM), and 1 µL of the solutions of CHL (2 mM), erythromycin (ERY, 6.8 mM), and levofloxacin (LEV, 69 nM) in DMSO were applied onto the agar plate that already contained a lawn of the reporter strain. After overnight incubation at 37 °C, the plate was scanned by ChemiDoc (Bio-Rad, USA) using “Cy3-blot” mode for RFP fluorescence and “Cy5-blot” mode for Katushka2S fluorescence.

E. coli 70S ribosomes [3] = assay: Competition-binding assay, displacement of BODIPY-ERY measured by fluorescence anisotropy; details: BODIPY-ERY 16 nM, ribosomes 50 nM, 25 °C, pH 7.5, n=3; read-out: Apparent dissociation constant KDapp, displacement of BODIPY-ERY
Text: (§2) Figure 2 CAM-C4-TPP is a potent inhibitor of protein synthesis both in vivo and in vitro. (A) In vivo testing of CAM-C4-TPP activity using E. coli BW25113 ΔtolC pDualRep2 reporter strains. The induction of the red fluorescent protein (RFP) expression (green halo around the inhibition zone) is triggered by DNA-damage, while the induction of Katushka2S protein (red halo) occurs in response to ribosome stalling. Levofloxacin (LEV), erythromycin (ERY), and chloramphenicol (CHL) are used as controls. This image is an overlay of the two images from the independent detections of RFP (Cy3 mode) or Ktushka2S (Cy5 mode) by ChemiDoc MP (Bio-Rad) with RFP fluorescence shown in green pseudocolor and Katushka2S fluorescence shown in red pseudocolor. (B,C) Competition-binding assay to test the displacement of fluorescently labeled BODIPY-CAM (B) or BODIPY-ERY (C) analogs from the E. coli 70S ribosomes in the presence of increasing concentrations of CAM (open diamonds), CHL (blue squares), or CAM-C4-TPP (red circles) measured by fluorescence anisotropy. All reactions were repeated three times. Error bars represent standard deviation. ND, no displacement. […]
(§3) Binding affinities of CHL analog CAM-C4-TPP, as well as other tested compounds, for the E. coli ribosome (Figure 2B,C) were analyzed by a competition-binding assay using fluorescently labeled BODIPY-CAM or BODIPY-ERY as described before. […]

[4] = system: cell-free transcription-translation system based on the E. coli S30 extract; assay: In vitro cell-free transcription-translation inhibition assay, firefly luciferase synthesis; format: biochemical; details: for IC50 / Concentration at which nearly complete inhibition of protein synthesis was observed: E. coli S30 extract; for IC50: 37 °C, 30 min, n=3; for Concentration at which nearly complete inhibition of protein synthesis was observed: firefly luciferase
Text: as §1
To check whether the improved binding of CAM-C4-TPP to the ribosome correlates with stronger inhibition of translation, we tested its ability to interfere with in vitro protein synthesis. […] Thus, CAM-C4-TPP provides a promising foundation for future ribosome-targeting drug development.
In vitro assessment of inhibition of synthesis of firefly luciferase by the tested compounds (Figure 2D) was accomplished as described previously. Briefly, the in vitro transcribed firefly luciferase mRNA was translated using E. coli S30 Extract System for Linear Templates (Promega, USA). Reactions containing 100 ng of mRNA and […] 0.1 mM of D-luciferin from the Steady-Glo Luciferase Assay System (Promega) were preincubated for 5 min with different concentrations (0.5 µM, 1 µM, 5 µM, 10 µM, 30 µM, 50 µM, 100 µM) of the tested compounds and carried out in 5-µL aliquots at 37 °C for 30 min. The activity of in vitro synthesized luciferase was measured by VICTOR X5 Multilabel Plate Reader (Perkin Elmer, USA) every 30 s. Calculations of the IC50 values for the tested compounds were carried out using GraphPad Prism software.

[5] = system: ribosome stalling on rst1 and rst2 mRNAs; assay: Toe-printing (primer extension inhibition) on rst1 and rst2 mRNAs in a cell-free translation system; format: biochemical; details: 30 µM compound
Text: The inhibition of protein synthesis by the PTC-targeting antibiotics depends on the amino-acid sequence of the nascent polypeptide chain and the identity of the incoming aminoacyl-tRNA in the A site of the ribosome. For example, CHL arrests translation only when alanine, and to a lesser extent, serine or threonine appear in the penultimate position (E site) of the growing polypeptide chain and only if there is no glycyl-tRNA in the A site of the ribosome. […] This method allows unambiguous identification of the drug-induced ribosome stalling site along the mRNA with a single nucleotide precision. This technique also allows for the determination of the context-specificity of drug action. A large set of ribosome-targeting antibiotics has been previously tested by toe-printing using rst1 or rst2 mRNAs as templates, because their sequences contain codons for almost all proteinogenic amino acids. Therefore, in order to be able to directly compare our results for CAM-C4-TPP with those for other antibiotics, we have chosen exactly the same experimental system.
Nevertheless, in the presence of CAM-C4-TPP, a fraction of ribosomes manages to escape the start codon, continues translation, and stalls at later codons within the ORF (Figure 6A,B, lanes 3 and 6).
Figure 6 CAM-C4-TPP is capable of arresting translation at the start codon. […]

E. coli 70S ribosomes [6] = assay: Competition-binding assay, displacement of BODIPY-CAM measured by fluorescence anisotropy; details: for Kd: BODIPY-CAM 30 nM, ribosomes 2.9 µM, 25 °C, pH 7.5, n=3, read-out: Apparent dissociation constant KDapp, displacement of BODIPY-CAM
Text: as §2, with “anisotropy.” for “anisotropy. All reactions were repeated three times. Error bars represent standard deviation. ND, no displacement.”
The amphenicol moieties of CAM-C4-TPP, its parent CHL, and the fluorescent derivative BODIPY-CAM are expected to have identical ribosome binding sites and, therefore, these compounds are expected to compete with each other for binding to the ribosome. […] The apparent dissociation constants KDapp of CHL determined from the displacement of BODIPY-CAM (2.6 ± 1.5 µM) or BODIPY-ERY (2.8 ± 0.5 µM) are consistent with each other and with the previously published data, including data determined by direct [^14C]-CHL binding (2.3 µM [30]). […]
as §3
Solutions of CHL, CAM, CAM-C4-TPP, or C4-TPP in different concentration ranges were added to the pre-formed ribosome/BODIPY-CAM or ribosome/BODIPY-ERY complexes. The mixtures were incubated for 2 h until equilibrium was reached and the values of fluorescence anisotropy were measured. […]

ribosome = target: ribosome; design: method as in PMID 4563072; details: read-out: Dissociation constant by direct [14C]-CHL binding; cited from earlier work

| SMILES | Induction of fluorescent reporters (Katushka2S = ribosome stalling; RFP = DNA damage/SOS response) [2] | Kd (E. coli 70S ribosomes [3]) | IC50 [4] | Concentration at which nearly complete inhibition of protein synthesis was observed [4] | Drug-induced ribosome stalling sites (toe-printing) [5] | Kd (E. coli 70S ribosomes [6]) | further results |
| --- | --- | --- | --- | --- | --- | --- | --- |
| CC1=CC(C)=[N+]2C1=Cc1ccc(CCCCC(=O)NC(CO)C(O)c3ccc([N+](=O)[O-])cc3)n1[B-]2(F)F (centres unmarked) [BODIPY-CAM] |  |  |  |  |  |  | Kd (E. coli 70S ribosomes [1]): 3.5 ± 0.9 µM |
| O=C(O)CCCC[P+](c1ccccc1)(c1ccccc1)c1ccccc1.[Br-] [C4-TPP, (4-Carboxybutyl)triphenyl-phosphonium bromide] | does not induce any of the two reporters |  |  |  |  |  | Bacterial cell growth inhibition (inhibition zone) ([2]; 1.5 µL of C4-TPP 20 mM or CAM 2 mM): inhibits bacterial cell growth |
| O=C(CCCC[P+](c1ccccc1)(c1ccccc1)c1ccccc1)N[C@H](CO)[C@H](O)c1ccc([N+](=O)[O-])cc1 [CAM-C4-TPP] | the expression of the fluorescent protein Katushka2S, but not of RFP, was strongly activated | 610 ± 70 nM | 900 ± 200 nM | ~ 10 µM | causes a significant portion of the ribosomes to stall at the initiator codons | 600 ± 400 nM | Fold better IC50 compared to CHL ([4]; in vitro translation of firefly luciferase): more than 3 fold; Fold higher affinity for the ribosome compared to parent CHL (E. coli 70S ribosomes [6]; both displacement assays (BODIPY-CAM and BODIPY-ERY)): ~ 5 fold |
| O=C(N[C@H](CO)[C@H](O)c1ccc([N+](=O)[O-])cc1)C(Cl)Cl [CHL, chloramphenicol] | induce expression of far-red fluorescent protein reporter Katushka2S | 2800 ± 500 nM | 2800 ± 500 nM | ~ 10 µM | predominant ribosome stalling when the 6th serine (Ser6) or 4th alanine (Ala4) residues appeared in the penultimate position | 2600 ± 1500 nM | Kd (ribosome): 2300 nM |
| CC[C@H]1OC(=O)[C@H](C)[C@@H](O[C@H]2C[C@@](C)(OC)[C@@H](O)[C@H](C)O2)[C@H](C)[C@@H](O[C@@H]2O[C@H](C)C[C@H](N(C)C)[C@H]2O)[C@](C)(O)C[C@@H](C)C(=O)[C@H](C)[C@@H](O)[C@]1(C)O [erythromycin] | induce expression of far-red fluorescent protein reporter Katushka2S |  |  |  |  |  |  |
| C[C@H]1COc2c(N3CCN(C)CC3)c(F)cc3c(=O)c(C(=O)O)cn1c23 [levofloxacin] | induce expression of Red Fluorescent Protein (RFP) reporter |  |  |  |  |  |  |
